Converted amounts (≈) assume the structure as drawn.
Legend:
in vivo = details: female, C57BL/6, mouse, in vivo
Procedure: Mouse MTD of Debio-1452-NH3. The protocol was approved by the IACUC at the University of Illinois at Urbana-Champaign (Protocol Number:16144). In these studies, 10- to 12-week-old female C57BL/6 mice purchased from Charles River were used. The maximum tolerate dose (MTD) of single compound was determined first. Debio-1452 amine analogues were formulated in 20% sulfobutyl ether β-cyclodextrin in sterile water. Debio-1452-NH3 (1), and compounds 2 and 3 were given by IP injection and mice were monitored for signs of toxicity for 2 weeks (single dose). For multiple dose, the compound was given by daily IP for 5 consecutive days and mice were monitored for signs of toxicity for 1 month. MTD was the highest dosage with acceptable toxicity (e.g. <20% weight loss). Single dose MTDs were initially determined. […] The MTD of Debio-1452-NH3 (1) was used to inform the dosing schedule used in subsequent efficacy studies.

[1] = Pharmacokinetic study in neutropenic infected mice
K. pneumoniae AR 0113 = test: microbe, parasite or virus in culture; assay type: cell-based; details: Klebsiella pneumoniae, AR0113, read-out: MIC K. pneumoniae AR 0113, clinical isolate
Outline: (§1)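 CLSI micro-dilution broth method; cation-adjusted MHB; biological triplicate.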

E. coli AR 0048 = test: microbe, parasite or virus in culture; assay type: cell-based; details: Escherichia coli, AR0048, read-out: MIC E. coli AR 0048, clinical isolate
Outline: as §1

K. pneumoniae AR 0066 = test: microbe, parasite or virus in culture; assay type: cell-based; details: Klebsiella pneumoniae, AR0066, read-out: MIC K. pneumoniae AR 0066, clinical isolate
Outline: as §1

A. baumannii AR 0273 = test: microbe, parasite or virus in culture; assay type: cell-based; details: Acinetobacter baumannii, AR0273, read-out: MIC A. baumannii AR 0273, clinical isolate
Outline: as §1

A. baumannii AR 0033 = test: microbe, parasite or virus in culture; assay type: cell-based; details: Acinetobacter baumannii, AR0033, read-out: MIC A. baumannii AR 0033, clinical isolate
Outline: as §1

E. coli AR 0085 = test: microbe, parasite or virus in culture; assay type: cell-based; details: Escherichia coli, AR0085, read-out: MIC E. coli AR 0085, clinical isolate
Outline: as §1

A. baumannii AR 0313 = test: microbe, parasite or virus in culture; assay type: cell-based; details: Acinetobacter baumannii, AR0313, read-out: MIC A. baumannii AR 0313, clinical isolate
Outline: as §1

K. pneumoniae AR 0560 = test: microbe, parasite or virus in culture; assay type: cell-based; details: Klebsiella pneumoniae, AR0560, read-out: MIC K. pneumoniae AR 0560, clinical isolate
Outline: as §1

A. baumannii AR 0299 = test: microbe, parasite or virus in culture; assay type: cell-based; details: Acinetobacter baumannii, AR0299, read-out: MIC A. baumannii AR 0299, clinical isolate
Outline: as §1

[2] = female, BALB/c, mouse, in vivo, 100 mg/kg
A. baumannii FabI = A. baumannii FabI (Acinetobacter baumannii, UniProt D0CAD5); test: biochemical
Chain of A. baumannii FabI (D0CAD5 1-288): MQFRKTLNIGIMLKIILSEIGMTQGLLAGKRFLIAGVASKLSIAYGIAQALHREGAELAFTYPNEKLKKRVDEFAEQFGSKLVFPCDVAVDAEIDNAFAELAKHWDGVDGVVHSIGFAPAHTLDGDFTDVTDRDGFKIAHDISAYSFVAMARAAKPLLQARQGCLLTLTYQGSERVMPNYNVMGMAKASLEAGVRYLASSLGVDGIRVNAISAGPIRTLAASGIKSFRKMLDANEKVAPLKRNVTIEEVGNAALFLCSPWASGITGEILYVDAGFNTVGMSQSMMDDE
Procedure: Mode of Action. To probe the effects of varying ring systems and amine placement on FabI target engagement, the apparent inhibition constants (Ki^app) for select compounds were determined using purified FabI. The goal of these studies was two-fold, to comparatively assess fabimycin, Debio-1452-NH3, and Debio-1452, and to also assess differential activity against the E. coli and A. baumannii versions of FabI. FabI from E. coli and A. baumannii were recombinantly expressed and purified, and the ability for each compound to inhibit the activity of these enzymes was evaluated using a standard FabI enzyme assay.
In vitro FabI inhibition assay. NADH (Sigma-Aldrich, Cat# N8129) and crotonoyl-CoA (Sigma-Aldrich, Cat# 28007) were both diluted into activity buffer [100 mM potassium glutamate (pH 7.8)], and working solution was dispensed into two columns of round-bottom 96-well plate (330 μL per well). Inhibitors, dissolved in DMSO at 200× final concentration, were added to each well via multichannel pipette (2.48 μL per well). After thorough mixing, this mixture was transferred to UV-transparent plate (UV-STAR half-area 96-well plate, Greiner Bio-One, Cat#675801, 100 μL per well, three technical replicates per inhibitor concentration). Plate was placed in plate-reader (SpectraMax 190, Molecular Devices) under temperature control (25° C.), and temperature was allowed to equilibrate. Fresh aliquot of enzyme from −80° C. was thawed on ice and diluted in activity buffer. Enzyme working solution was added to plate (50 μL per well, 20 nM enzyme final). After shaking for 5 s, reaction progress was monitored by absorbance at 340 nm every 15 s for 90 min. Linear portion of reaction progress curve was fit using plate-reader software (SoftMax Pro 7.0). Percent activity was calculated relative to DMSO-only and no-enzyme controls in each plate. Percent activity curves were fit to Morrison's quadratic using Graphpad Prism 6.0 to obtain apparent Ki.

SMILES: Cc1c(CN(C)C(=O)/C=C/c2cnc3c(c2)CC[C@H](N)C(=O)N3)oc2ccccc12 [(S)-11, (S,E)-3-(7-amino-8-oxo-6,7,8,9-tetrahydro-5H-pyrido[2,3-b]azepin-3-yl)-N-methyl-N-((3-methylbenzofuran-2-yl)methyl)acrylamide]
- MTD at 5 d (in vivo): 200 mg/kg
- AUClast ([1]; PLASMA, 75 mg/kg IV): 45.4 µg·h/mL
- CL ([1]; PLASMA, 75 mg/kg IV): 1.61 L/h/kg
- Cmax ([1]; PLASMA, 75 mg/kg IV): 34.6 µg/mL
- AUClast ([1]; PLASMA, 100 mg/kg IV): 69.8 µg·h/mL
- CL ([1]; PLASMA, 100 mg/kg IV): 1.41 L/h/kg
- Cmax ([1]; PLASMA, 100 mg/kg IV): 47.3 µg/mL
- AUClast ([1]; THIGH, 75 mg/kg IV): 65.2 µg·h/mL
- CL ([1]; THIGH, 75 mg/kg IV): 1.13 L/h/kg
- Cmax ([1]; THIGH, 75 mg/kg IV): 33.0 µg/g
- AUClast ([1]; THIGH, 100 mg/kg IV): 112 µg·h/mL
- CL ([1]; THIGH, 100 mg/kg IV): 0.882 L/h/kg
- Cmax ([1]; THIGH, 100 mg/kg IV): 60.2 µg/g
- MIC (K. pneumoniae AR 0113): 4 mg/L (≈ 9.89 µM)
- MIC (E. coli AR 0048): 2 mg/L (≈ 4.94 µM)
- MIC (K. pneumoniae AR 0066): 4 mg/L (≈ 9.89 µM)
- MIC (A. baumannii AR 0273): 4 mg/L (≈ 9.89 µM)
- MIC (A. baumannii AR 0033): 8 mg/L (≈ 19.8 µM)
- MIC (E. coli AR 0085): 1 mg/L (≈ 2.47 µM)
- MIC (A. baumannii AR 0313): 4 mg/L (≈ 9.89 µM)
- MIC (K. pneumoniae AR 0560): 4 mg/L (≈ 9.89 µM)
- MIC (A. baumannii AR 0299): 2 mg/L (≈ 4.94 µM)
- time concentrations stayed above the MIC for the infectious strain [2]: over 7 hours
- Plasma protein binding, Mouse (Plasma protein binding; Mouse): 96%
- fraction unbound (Plasma protein binding; mouse, plasma): 0.04
- fold change in Ki^app relative to Debio-1452-NH3 (A. baumannii FabI; A. baumannii FabI, 3 vs. 114 nM): > 30 fold
- Ki (A. baumannii FabI; purified FabI, apparent inhibition constant, read-out: A. baumannii FabI Ki^app): 3 nM
- fold more potent than (R)-11 against A. baumannii FabI (A. baumannii FabI; relative to opposite enantiomer (R)-11): ~30 fold
- stability in human plasma (in words) (Plasma stability): excellent stability

Source: patent publication US20240190872A1, “FABI INHIBITORS FOR GRAM-NEGATIVE PATHOGENS” (THE BOARD OF TRUSTEES OF THE UNIVERSITY OF ILLINOIS, priority 2021, published 2024)
